According to patent US8575201B2 (Boehringer Ingelheim International GmbH, priority 2010, dated 2013):
pIC50: −log10 of the molar value.

Tests used:
[1] = molecular target: recombinant human FLAP protein (Homo sapiens (Human), UniProt P20292); experiment: FLAP binding assay (Scintillation Proximity Assay, displacement of [125I]L-691,831); conditions: read-out: FLAP SPA IC50
Protocol: Assessment of Biological Properties 1. Binding Assay: Compounds are assessed for the ability to bind to FLAP in a binding assay that measures compound-specific displacement of an iodinated (^125I) FLAP inhibitor via a Scintillation Proximity Assay format (adapted from S. Charleson et al., Mol. Pharmacol., 1992, 41, 873-879). […] The cells are lysed with a Dounce homogenizer and the material is centrifuged at 10,000×g for 10 minutes. The supernatant is then collected and centrifuged at 100,000×g for 60 minutes. To prepare membrane protein for an assay, an aliquot of the 100,000×g pellet is resuspended in 1 ml of buffer A, Dounce homogenized, and finally subjected to polytron mixing (30 seconds). […] Mol. Pharmacol., 41, 873-879, 1992) and finally 50 μl of the bead/protein mixture. (final concentrations: beads, 200 μg/well; protein, 5 μg/well; […] The plates are shaken for 2 h before reading on a Microbeta plate reader.

[2] = tested on: synthesis of LTB4 in human whole blood; experiment: Human whole blood LTB4 production inhibition assay; format: cell-based; conditions: calcimycin stimulated, read-out: hWB LTB4 IC50
Protocol: Compounds are additionally tested in a human whole blood assay to determine their ability to inhibit the synthesis of LTB4 in a cellular system. Compounds are combined with heparinized human whole blood and incubated for 15 minutes at 37° C. Calcimycin (20 μM final, prepared in phosphate-buffered saline, pH 7.4) is then added and the mixture is incubated for another 30 minutes at 37° C. The samples are centrifuged for 5 min at low speed (1500×g) and the plasma layer is removed. Plasma LTB4 concentrations are then measured using an antibody-based homogenous time-resolved fluorescence method (CisBio, Bedford, Mass.).

Chain of recombinant human FLAP protein (P20292 whole entry): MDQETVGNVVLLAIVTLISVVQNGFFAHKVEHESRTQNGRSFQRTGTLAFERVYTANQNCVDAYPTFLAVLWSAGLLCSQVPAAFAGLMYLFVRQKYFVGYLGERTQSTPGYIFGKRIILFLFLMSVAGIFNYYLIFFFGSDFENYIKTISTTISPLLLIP

Row | Structure (SMILES) | pIC50 [1] | pIC50 [2]
1 | CC(C)(O)CNc1ccc(-c2nc(C3(c4ccc(-c5cnc(N)nc5)nc4)CCC3)no2)cn1 [Example 12, 1-{[5-(3-{1-[6-(2-aminopyrimidin-5-yl)pyridin-3-yl]cyclobutyl}-1,2,4-oxadiazol-5-yl)pyridin-2-yl]amino}-2-methylpropan-2-ol] | 8.68 | 6.85
2 | CCOC(=O)CNc1ccc(-c2nc(C3(c4ccc(-c5cnc(N)nc5)nc4)CCC3)no2)cn1 [Example 13, ethyl N-[5-(3-{1-[6-(2-aminopyrimidin-5-yl)pyridin-3-yl]cyclobutyl}-1,2,4-oxadiazol-5-yl)pyridin-2-yl]glycinate] | 8.41 | 6.77
3 | Nc1ncc(-c2ccc(C3(c4noc(-c5c[nH]nn5)n4)CCC3)cn2)cn1 [Example 14, 5-(5-{1-[5-(1H-1,2,3-triazol-4-yl)-1,2,4-oxadiazol-3-yl]cyclobutyl}pyridin-2-yl)pyrimidin-2-amine] | 6.85 | < 5.30
4 | CN(C)c1nc(C2(c3ccc(-c4cnc(N)nc4)nc3)CCC2)no1 [Example 15, 5-(5-{1-[5-(dimethylamino)-1,2,4-oxadiazol-3-yl]cyclobutyl}pyridin-2-yl)pyrimidin-2-amine] | 6.55 | 5.59
5 | Nc1ncc(-c2ccc(C3(c4noc(-c5ccc(NCC(=O)O)nc5)n4)CCC3)cn2)cn1 [Example 16, N-[5-(3-{1-[6-(2-aminopyrimidin-5-yl)pyridin-3-yl]cyclobutyl}-1,2,4-oxadiazol-5-yl)pyridin-2-yl]glycine] | 7.96 | 5.66
6 | Nc1ncc(-c2ccc(C3(c4noc(-c5ccc(S(N)(=O)=O)cc5)n4)CCC3)cn2)cn1 [Example 17, 4-(3-{1-[6-(2-aminopyrimidin-5-yl)pyridin-3-yl]cyclobutyl}-1,2,4-oxadiazol-5-yl)benzenesulfonamide] | 8.06 | < 5.30
7 | Nc1ncc(-c2ccc(C3(c4noc(-c5ccc(NCC6(O)CC6)nc5)n4)CCC3)cn2)cn1 [Example 18, 1-({[5-(3-{1-[6-(2-aminopyrimidin-5-yl)pyridin-3-yl]cyclobutyl}-1,2,4-oxadiazol-5-yl)pyridin-2-yl]amino}methyl)cyclo-propanol] | 8.74 | 7.02
8 | Nc1ncc(-c2ccc(C3(c4noc(-c5cccc(S(N)(=O)=O)c5)n4)CCC3)cn2)cn1 [Example 19, 3-(3-{1-[6-(2-aminopyrimidin-5-yl)pyridin-3-yl]cyclobutyl}-1,2,4-oxadiazol-5-yl)benzenesulfonamide] | 7.24 | < 5.30
9 | Cn1cc(-c2nc(C3(c4ccc(-c5cnc(N)nc5)nc4)CCC3)no2)c(C(F)(F)F)n1 [Example 20, 5-[5-(1-{5-[1-methyl-3-(trifluoromethyl)-1H-pyrazol-4-yl]-1,2,4-oxadiazol-3-yl}cyclobutyl)pyridin-2-yl]pyrimidin-2-amine] | 8.04 | 6.28
10 | CC(C)(CO)Nc1ccc(-c2nc(C3(c4ccc(-c5cnc(N)nc5)nc4)CCC3)no2)cn1 [Example 21, 2-{[5-(3-{1-[6-(2-aminopyrimidin-5-yl)pyridin-3-yl]cyclobutyl}-1,2,4-oxadiazol-5-yl)pyridin-2-yl]amino}-2-methylpropan-1-ol] | 8.59 | 6.60
11 | Nc1ncc(-c2ccc(C3(c4noc(-c5ccc(OCCO)nc5)n4)CCC3)cn2)cn1 [Example 22, 2-{[5-(3-{1-[6-(2-aminopyrimidin-5-yl)pyridin-3-yl]cyclobutyl}-1,2,4-oxadiazol-5-yl)pyridin-2-yl]oxy}ethanol] | 8.60 | 6.85
12 | Nc1ncc(-c2ccc(C3(c4noc(-c5cscn5)n4)CCC3)cn2)cn1 [Example 23, 5-(5-{1-[5-(1,3-thiazol-4-yl)-1,2,4-oxadiazol-3-yl]cyclobutyl}pyridin-2-yl)pyrimidin-2-amine] | 7.59 | 6.37
13 | Nc1ncc(-c2ccc(C3(c4noc(-c5cocn5)n4)CCC3)cn2)cn1 [Example 24, 5-(5-{1-[5-(1,3-oxazol-4-yl)-1,2,4-oxadiazol-3-yl]cyclobutyl}pyridin-2-yl)pyrimidin-2-amine] | 6.96 | 6.00
14 | Nc1ncc(-c2ccc(C3(c4noc(-c5cnn6cccnc56)n4)CCC3)cn2)cn1 [Example 25, 5-(5-{1-[5-(pyrazolo[1,5-a]pyrimidin-3-yl)-1,2,4-oxadiazol-3-yl]cyclobutyl}pyridin-2-yl)pyrimidin-2-amine] | 8.40 | 7.34
15 | Cn1cc(-c2nc(C3(c4ccc(-c5cnc(N)nc5)nc4)CCC3)no2)ccc1=O [Example 26, 5-(3-{1-[6-(2-aminopyrimidin-5-yl)pyridin-3-yl]cyclobutyl}-1,2,4-oxadiazol-5-yl)-1-methylpyridin-2(1H)-one] | 6.96 | 6.14
16 | Nc1ncc(-c2ccc(C3(c4noc(-c5ccc6nccn6c5)n4)CCC3)cn2)cn1 [Example 27, 5-(5-{1-[5-(imidazo[1,2-a]pyridin-6-yl)-1,2,4-oxadiazol-3-yl]cyclobutyl}pyridin-2-yl)pyrimidin-2-amine] | 7.91 | 6.38
17 | CC(CO)n1cc(-c2nc(C3(c4ccc(-c5cnc(N)nc5)nc4)CCC3)no2)cn1 (centres unmarked) [Example 29, 2-[4-(3-{1-[6-(2-aminopyrimidin-5-yl)pyridin-3-yl]cyclobutyl}-1,2,4-oxadiazol-5-yl)-1H-pyrazol-1-yl]propan-1-ol] | 7.46 | 6.49
18 | CC(C)(CO)n1cc(-c2nc(C3(c4ccc(-c5cnc(N)nc5)nc4)CCC3)no2)cn1 [Example 30, 2-[4-(3-{1-[6-(2-aminopyrimidin-5-yl)pyridin-3-yl]cyclobutyl}-1,2,4-oxadiazol-5-yl)-1H-pyrazol-1-yl]-2-methylpropan-1-ol] | 7.48 | 6.40
19 | Nc1ncc(-c2ccc(C3(c4noc(-c5ccc(-n6ccnc6)nc5)n4)CCC3)cn2)cn1 [Example 31, 5-[5-(1-{5-[6-(1H-imidazol-1-yl)pyridin-3-yl]-1,2,4-oxadiazol-3-yl}cyclobutyl)pyridin-2-yl]pyrimidin-2-amine] | 8.72 | 6.52
20 | Nc1ncc(-c2ccc(C3(c4noc(-c5ccc(O)cc5)n4)CCC3)cn2)cn1 [Example 32, 4-(3-{1-[6-(2-aminopyrimidin-5-yl)pyridin-3-yl]cyclobutyl}-1,2,4-oxadiazol-5-yl)phenol] | 8.54 | 6.85
21 | Nc1ncc(-c2ccc(C3(c4noc(-c5ccc(NC(CO)CO)nc5)n4)CCC3)cn2)cn1 [Example 33, 2-{[5-(3-{1-[6-(2-aminopyrimidin-5-yl)pyridin-3-yl]cyclobutyl}-1,2,4-oxadiazol-5-yl)pyridin-2-yl]amino}propane-1,3-diol] | 8.66 | 5.59
22 | CN(C)C(=O)[C@@H]1CCCN1c1ccc(-c2nc(C3(c4ccc(-c5cnc(N)nc5)nc4)CCC3)no2)cn1 [Example 34, 1-[5-(3-{1-[6-(2-aminopyrimidin-5-yl)pyridin-3-yl]cyclobutyl}-1,2,4-oxadiazol-5-yl)pyridin-2-yl]-N,N-dimethyl-L-prolinamide] | 7.40 | 5.74
23 | Nc1ncc(-c2ccc(C3(c4noc(-c5ccc(N6CCC[C@H]6C(=O)O)nc5)n4)CCC3)cn2)cn1 [Example 35, 1-[5-(3-{1-[6-(2-aminopyrimidin-5-yl)pyridin-3-yl]cyclobutyl}-1,2,4-oxadiazol-5-yl)pyridin-2-yl]-L-proline] | 7.37 | < 5.30
24 | COC(=O)[C@@H]1CCCN1c1ccc(-c2nc(C3(c4ccc(-c5cnc(N)nc5)nc4)CCC3)no2)cn1 [Example 36, methyl 1-[5-(3-{1-[6-(2-aminopyrimidin-5-yl)pyridin-3-yl]cyclobutyl}-1,2,4-oxadiazol-5-yl)pyridin-2-yl]-L-prolinate] | 8.23 | 5.85
25 | Cn1cnnc1-c1nc(C2(c3ccc(-c4cnc(N)nc4)nc3)CCC2)no1 [Example 37, 5-(5-{1-[5-(4-methyl-4H-1,2,4-triazol-3-yl)-1,2,4-oxadiazol-3-yl]cyclobutyl}pyridin-2-yl)pyrimidin-2-amine] | 6.96 | 6.10
26 | COC(=O)[C@H]1CNCCN1c1ccc(-c2nc(C3(c4ccc(-c5cnc(N)nc5)nc4)CCC3)no2)cn1 [Example 38, methyl (2R)-1-[5-(3-{1-[6-(2-aminopyrimidin-5-yl)pyridin-3-yl]cyclobutyl}-1,2,4-oxadiazol-5-yl)pyridin-2-yl]piperazine-2-carboxylate] | 8.49 | 7.12
27 | COC(=O)[C@H]1CN(c2ccc(-c3nc(C4(c5ccc(-c6cnc(N)nc6)nc5)CCC4)no3)cn2)CCN1 [Example 40, methyl (2R)-4-[5-(3-{1-[6-(2-aminopyrimidin-5-yl)pyridin-3-yl]cyclobutyl}-1,2,4-oxadiazol-5-yl)pyridin-2-yl]piperazine-2-carboxylate] | 8.48 | 7.04
28 | Nc1ncc(-c2ccc(C3(c4noc(-c5ccc(N6CCN[C@H](C(=O)O)C6)nc5)n4)CCC3)cn2)cn1 [Example 41, (2S)-4-[5-(3-{1-[6-(2-aminopyrimidin-5-yl)pyridin-3-yl]cyclobutyl}-1,2,4-oxadiazol-5-yl)pyridin-2-yl]piperazine-2-carboxylic acid] | 8.11 | < 5.30
